Reference: patent US5356775A, “Primary structure for functional expression from complementary DNA of a mammalian ATP-sensitive potassium channel” (Brigham & Women's Hospital, priority 1992, dated 1994)
“Also recorded” adds a separate entry of the source.

Experiments:
ROMK1 K+ channels = molecular target: T1, ROMK1 K+ channels (Rattus norvegicus, UniProt P35560); experiment: Single channel patch clamp recording, inside-out patches excised from ROMK1 mRNA-injected Xenopus oocytes; type: cell-based
T1 construct: This coding region encodes a protein of 391 amino acids; expressed in transfected cells; host or cells: Xenopus laevis oocytes injected with cRNA transcribed in vitro from ROMK1 cDNA (pSPORT1)
T1 sequence (P35560 1-391): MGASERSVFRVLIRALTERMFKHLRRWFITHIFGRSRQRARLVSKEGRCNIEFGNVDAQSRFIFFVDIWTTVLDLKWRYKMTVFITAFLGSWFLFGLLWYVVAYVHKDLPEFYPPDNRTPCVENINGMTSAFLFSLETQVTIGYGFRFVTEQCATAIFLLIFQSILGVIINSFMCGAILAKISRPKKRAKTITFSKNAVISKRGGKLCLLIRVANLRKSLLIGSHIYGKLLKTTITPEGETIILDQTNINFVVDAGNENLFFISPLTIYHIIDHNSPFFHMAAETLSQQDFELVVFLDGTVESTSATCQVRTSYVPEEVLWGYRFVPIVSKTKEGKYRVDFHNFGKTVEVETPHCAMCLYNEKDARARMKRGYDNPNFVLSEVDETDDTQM
Experimental: FIG. 2. Single channel characteristics of ATP-sensitive ROMK1 K^+ channels expressed in Xenopus oocytes. Channel activities were recorded in inside-out patches excised from oocyte membranes.
Changes made in bath solution ATP concentration are indicated above the current recording: ATP-free (solid line), 0.025 mM ATP (dashed line). Recordings were taken at VH =-80 mV. Interruptions were introduced into the recording shown in order to display the entire current tracing. Expanded current tracings taken from the continuous recording are indicated by numbers and arrowheads.
(E) The inhibitory effect of 2.5 mM ATP on channel activity. Changes in bath solution ATP concentration are indicated above the current recording; 0.025 mM ATP (dashed line), 2.5 mM ATP (solid line). […] The recording was taken at VH =-40 mV. Expanded current tracings taken from the recording at various time intervals are indicated by arrows and numbers. The pipette solution contained (mM): 150 or 50 KCl, 1 CaCl2, 1 MgCl2, 5 HEPES (pH 7.4). The bath solution contained (mM): 0,0.025 or 2.5 MgATP, 150 KCl, 1 MgCl2 , 5 EGTA, 5 HEPES (pH 7.4).
Single channel recordings were obtained in oocytes injected with ROMK1 mRNA following vitelline membrane removal using standard patch clamp techniques to further characterize the properties of ROMK1 K^+ currents (FIG. 2). […] At negative membrane potentials, the amplitude of inward currents increased linearly with increasing hyperpolarization relative to Erev (Erev =O mV for symmetrical K^+ solutions). […] Similar inwardly rectifying currents were also observed in the cell-attached patch configuration. The K^+ selectivity of these currents was confirmed by varying the pipette solution K^+ concentration ([K^+ ]ext). Reversal potentials obtained with pipette solutions containing either 150 mM KCl or 50 mM KCl+100 mM NaCl were in complete agreement with the Nernstian predictions for Erev under these conditions (FIGS. 2B, 2C); the permeability ratio (PNa /PK) of 0.025 for these channels indicates high K^+ selectivity. […] Epithelial KATP channels (classified as Type 3) present in renal tubular cells from the thick ascending limb of Henle and the conical collecting duct (Bliech et al., Pflugers Arch. 415:449 (1990); Wang et al., Am. J. Physiol. 258:F244 (1990); Wang et al., Am. J. Physiol. 259:F494 (1990)) have single conductances of ~25-60 pS and share similar characteristics.
The effect of intracellular ATP on ROMK1 currents was also investigated using the inside-out patch configuration. […] In contrast, channel activity was routinely maintained for 30 minutes or longer by excision of patches directly into a bath solution containing 25 μM MgATP. […] Channels with these properties and electrophysiological characteristics were never observed in either cell-attached or inside-out patches from H2 O-injected control oocytes; in contrast, several channels of this type were typically active in patches from ROMK1 mRNA-injected oocytes. The incidence of ROMK1 channels in patches was 94% (63 of 67 patches) which was consistent with the high channel density observed in these experiments. […] In channels of both types, channel rundown rapidly occurs in excised membrane patches; this loss of channel activity is reversed or prevented, at least partially, by the addition of MgATP (Ashcroft et al., Cellular Signalling 2:197 (1990); Ashcroft, F. M., Ann. Rev. Neurosci. 11:97 (1988); Nichols et al., Am. J. Physiol. 261:H1675 (1991); Wang et al., J. Gen. Physiol. 98:35 (1991)).

ROMK1 = molecular target: T2, ROMK1 (Rattus norvegicus, UniProt P35560); experiment: Two-electrode voltage clamp of Xenopus oocytes injected with ROMK1 mRNA; type: cell-based; details: 10 mM, [K+]ext = 50 mM, test potentials -60 to 0 mV
T2 construct: This coding region encodes a protein of 391 amino acids; expressed in transfected cells; host or cells: Xenopus laevis oocytes injected with cRNA transcribed in vitro from ROMK1 cDNA (pSPORT1)
T2 sequence (P35560 1-391): T1 sequence (P35560 1-391)
Experimental: (E) Representative current tracings in oocytes injected with ~0.3 ng ROMK1 mRNA or H2 O evoked by 450 ms test pulses from a VH =-45 mV to test potentials from -60 mV to 0 mV in 20 mV increments in the presence or absence of 10 mM Ba2+, [K+ ]ext =50 mM. ROMK1 currents were blocked by 10 mM Ba^2+ at the test potentials used.
(§1) Size-fractionated mRNA with a size of ~2-3 kb yielded a highly augmented mean inward IK(Ba) sixteen-fold greater than that of H2 O-injected controls when injected into oocytes (FIG. 1D) and was therefore used to construct a directional cDNA library in the vector pSPORT1. RNA transcribed in vitro from pooled clones using T7 RNA polymerase was injected into Xenopus oocytes and tested for IK(Ba) currents using two-electrode voltage clamping. Functional screening of cRNA led to the identification of a 2.1 kb cDNA, ROMK1.

[1] = test system: Ba2+-sensitive potassium currents (IK(Ba)) expressed from rat kidney ISOM poly(A)+ RNA; experiment: Two-electrode voltage clamp of Xenopus oocytes injected with rat kidney ISOM poly(A)+ RNA; type: cell-based; details: 5 mM Ba2+, [K+]ext = 50 mM, test potentials -80 to 0 mV
Experimental: (A) Representative current tracings evoked by 450 ms voltage steps ranging from -80 mV to 0 mV in 20 mV increments from a holding potential (VH) of -60 mV in oocytes injected with ~25 ng ISOM poly(A)^+ RNA or 50 nl H2 O [K^+ ]ext =50 mM.
(B) Current-voltage relationships of IK(Ba) in a representative ISOM poly(A)^+ RNA-injected oocyte ( ) and a H2 O-injected control (.circle.). […] Both current amplitudes and Vm were measured 75 ms after initiation of test pulses; Ba^2+ -sensitive current (KK(Ba)) amplitudes were obtained by determining the difference in current amplitudes before and after the addition of 5 mM Ba^2+ at each test potential and plotted as a function of observed Vm.
as §1

[2] = molecular target: renal Type 3 KATP channels; details: read-out: Ki of intracellular ATP; cited from earlier work
[3] = test system: Type 1 channels in pancreatic β-cells; details: read-out: Ki of intracellular ATP; cited from earlier work
[4] = molecular target: Type 1 channels in cardiac myocytes; details: read-out: Ki of intracellular ATP; cited from earlier work
[5] = molecular target: Type 2 KATP channels (central neurons); details: central neurons (e.g. ventromedial hypothalamic nucleus), read-out: Ki of ATP; cited from earlier work

Nc1ncnc2c1ncn2[C@@H]1O[C@H](COP(=O)(O)OP(=O)(O)OP(=O)(O)O)[C@@H](O)[C@H]1O [MgATP]
time channel activity was maintained in excised patches (ROMK1 K+ channels; patches excised directly into bath solution containing 25 μM MgATP): ≥ 30 min

[Ba+2] [Ba^2+]
inhibition (block) of ROMK1 currents (ROMK1): blocked
inhibition of currents expressed in RNA-injected oocytes [1]: marked inhibition

CC[N+](CC)(CC)CC [TEA^+]
inhibition (block) of ROMK1 currents (ROMK1): no inhibition

Nc1ncnc2c1ncn2[C@@H]1O[C@H](COP(=O)(O)OP(=O)(O)OP(=O)(O)O)[C@@H](O)[C@H]1O [ATP]
effect on channel activity of high ATP at the cytosolic face of inside-out patches (ROMK1 K+ channels; 1.0-2.5 mM ATP, patches initially excised into bath containing 25 μM ATP): rapid and marked inhibition of channel activity
effect of 2.5 mM ATP on channel activity (ROMK1 K+ channels; ATP raised from 0.025 mM to 2.5 mM by puffer pipette, VH = -40 mV): inhibition of channel activity
restoration of channel activity following channel rundown (ROMK1 K+ channels; readdition of 25 μM (0.025 mM) ATP after ATP-free bath): Partial restoration of channel activity; also recorded: channel recovery
reversibility of inhibition by ATP (ROMK1 K+ channels; wash-out of the high ATP-containing solution): reversible
Ki [2]: 200 to 500 µM
Ki [3]: 10 to 20 µM
Ki [4]: 17 to 100 µM
Ki [5]: 2000 to 3000 µM
